From ChEMBL document CHEMBL1201862, “PubChem BioAssay data set” (2004)
Calls of active or inactive are those of the source.

Experiments:
[1] = target: Beta-galactosidase (Escherichia coli, UniProt Q8VNN2); assay: Dose response counterscreen for EBI2 assay utilizing the enzyme, b-galactosidase.; type: functional
[2] = target: T1, Leucine aminopeptidase (Plasmodium falciparum 3D7, UniProt Q8IL11); assay: P. falciparum M17LAP inhibitors, primary screen, biochemical, fluorogenic H-Leu-NHMec substrate, 1536-well (AID 1619); type: functional
T1 sequence (Q8IL11 whole entry): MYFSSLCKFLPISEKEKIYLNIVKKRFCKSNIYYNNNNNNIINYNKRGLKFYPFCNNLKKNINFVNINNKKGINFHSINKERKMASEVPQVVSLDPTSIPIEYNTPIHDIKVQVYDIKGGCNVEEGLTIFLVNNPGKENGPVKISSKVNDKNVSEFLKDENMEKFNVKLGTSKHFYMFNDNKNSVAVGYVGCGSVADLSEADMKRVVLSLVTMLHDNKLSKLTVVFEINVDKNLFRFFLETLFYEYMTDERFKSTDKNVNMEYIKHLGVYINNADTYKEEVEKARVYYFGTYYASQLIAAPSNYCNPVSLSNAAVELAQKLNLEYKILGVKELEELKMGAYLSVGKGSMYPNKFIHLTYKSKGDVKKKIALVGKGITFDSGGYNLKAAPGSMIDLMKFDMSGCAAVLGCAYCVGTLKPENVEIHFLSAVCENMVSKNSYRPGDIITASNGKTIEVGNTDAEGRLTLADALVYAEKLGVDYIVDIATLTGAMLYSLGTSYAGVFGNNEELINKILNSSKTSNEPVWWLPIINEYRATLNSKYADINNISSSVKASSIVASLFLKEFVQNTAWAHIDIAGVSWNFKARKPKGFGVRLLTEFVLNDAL

[3] = HeLa cell cytotoxicity, dose response, cytotoxicity control for MgcRacGAP inhibitor project (AID 624300); type: functional
[4] = target: Nonstructural protein 1 (Influenza A virus, UniProt Q194T2); type: functional, Influenza A virus (A/California/07/2009(H1N1))
Nonstructural protein 1, sequence (Q194T2 whole entry): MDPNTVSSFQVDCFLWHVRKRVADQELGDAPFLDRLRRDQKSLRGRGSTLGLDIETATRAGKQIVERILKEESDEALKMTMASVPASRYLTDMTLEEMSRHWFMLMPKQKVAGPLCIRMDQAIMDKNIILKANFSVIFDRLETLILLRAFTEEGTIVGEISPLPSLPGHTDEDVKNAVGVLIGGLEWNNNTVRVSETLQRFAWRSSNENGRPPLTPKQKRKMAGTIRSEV

[5] = target: T2, Rac GTPase-activating protein 1 (Homo sapiens, UniProt Q9H0H5); assay: MgcRacGAP GTPase-activating activity inhibitors, confirmation, biochemical, ADP Hunter fluorescence, primary and confirmatory (AID 624330); type: functional
T2 sequence (Q9H0H5 whole entry): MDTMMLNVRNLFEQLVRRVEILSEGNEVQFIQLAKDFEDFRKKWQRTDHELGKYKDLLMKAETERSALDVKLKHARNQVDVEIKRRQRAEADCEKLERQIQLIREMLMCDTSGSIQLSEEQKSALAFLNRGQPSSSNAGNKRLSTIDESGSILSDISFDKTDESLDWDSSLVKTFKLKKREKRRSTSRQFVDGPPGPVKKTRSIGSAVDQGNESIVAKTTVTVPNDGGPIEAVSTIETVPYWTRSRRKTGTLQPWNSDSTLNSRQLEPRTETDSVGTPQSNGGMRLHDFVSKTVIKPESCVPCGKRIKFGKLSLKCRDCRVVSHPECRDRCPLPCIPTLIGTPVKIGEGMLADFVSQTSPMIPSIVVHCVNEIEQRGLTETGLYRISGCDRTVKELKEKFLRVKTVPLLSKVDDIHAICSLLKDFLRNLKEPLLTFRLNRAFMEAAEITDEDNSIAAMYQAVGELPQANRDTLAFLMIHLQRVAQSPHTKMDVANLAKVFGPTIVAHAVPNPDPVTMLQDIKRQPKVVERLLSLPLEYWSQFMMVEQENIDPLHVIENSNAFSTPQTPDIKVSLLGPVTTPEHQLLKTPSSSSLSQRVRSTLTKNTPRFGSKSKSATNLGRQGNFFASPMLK

[6] = target: T3, DNA repair protein RAD52 homolog (Homo sapiens, UniProt P43351); type: functional, biochemical
T3 sequence (P43351 whole entry): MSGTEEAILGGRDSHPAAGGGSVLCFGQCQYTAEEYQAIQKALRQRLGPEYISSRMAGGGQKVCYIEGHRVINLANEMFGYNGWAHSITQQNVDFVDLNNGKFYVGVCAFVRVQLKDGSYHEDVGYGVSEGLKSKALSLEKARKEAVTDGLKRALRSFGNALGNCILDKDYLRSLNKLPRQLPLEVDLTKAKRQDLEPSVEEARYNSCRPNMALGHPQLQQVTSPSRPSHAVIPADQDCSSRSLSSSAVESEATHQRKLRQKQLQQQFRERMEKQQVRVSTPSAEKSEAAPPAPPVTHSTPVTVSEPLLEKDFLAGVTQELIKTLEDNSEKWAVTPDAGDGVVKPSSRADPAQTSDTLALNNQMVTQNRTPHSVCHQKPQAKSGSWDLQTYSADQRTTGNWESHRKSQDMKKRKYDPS

[7] = target: Phospholipase A2 (Homo sapiens, UniProt P04054); type: functional;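 also: confirmatory dose-response counterscreen on phospholipase A2, testing hits that came from an ultra-high-throughput screen for ATG4B inhibitors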
Phospholipase A2, sequence (P04054 whole entry): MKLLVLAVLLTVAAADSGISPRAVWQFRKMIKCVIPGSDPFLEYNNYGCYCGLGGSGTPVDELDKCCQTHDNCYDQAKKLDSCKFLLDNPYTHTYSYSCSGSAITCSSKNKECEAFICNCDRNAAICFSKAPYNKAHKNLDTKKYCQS

[8] = target: T4, Cysteine protease ATG4B (Homo sapiens, UniProt Q9Y4P1); type: functional;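 also: Fluorescence-based dose-response confirmation assay measuring inhibition of ATG4B activity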
T4 sequence (Q9Y4P1 whole entry): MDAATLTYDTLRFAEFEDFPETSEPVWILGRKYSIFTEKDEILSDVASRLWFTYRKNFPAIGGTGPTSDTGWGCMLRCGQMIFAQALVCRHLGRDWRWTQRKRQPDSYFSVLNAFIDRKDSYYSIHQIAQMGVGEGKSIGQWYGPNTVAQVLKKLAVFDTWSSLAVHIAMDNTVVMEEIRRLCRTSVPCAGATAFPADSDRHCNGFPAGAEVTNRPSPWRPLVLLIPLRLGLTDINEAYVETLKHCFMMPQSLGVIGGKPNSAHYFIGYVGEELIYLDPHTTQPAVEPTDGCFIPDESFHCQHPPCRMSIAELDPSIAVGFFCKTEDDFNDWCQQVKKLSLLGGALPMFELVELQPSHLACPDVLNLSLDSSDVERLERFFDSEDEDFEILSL

[9] = cytotoxicity toward NIH3T3 fibroblasts, dose response, counter-screen, cell-based, ATP luminescence, mouse fibroblasts (AID 2010); type: functional;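 also: cells exposed to compound for about 90 hours before reading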
[10] = inhibitors of intracellular T. cruzi replication, confirmation, NIH3T3 host cells, beta-gal luminescence (AID 2044); type: functional, cell-based;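 also: intracellular parasites grown in NIH/3T3 mouse fibroblasts as host cells; luminescent beta-galactosidase reporter signal from transgenic T. cruzi replicating inside host cells; inhibitors lower the luminescence signal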
[11] = target: T5, Polyadenylate-binding protein 1 (Homo sapiens, UniProt P11940); assay: PABP1 MLLE–PAM2 interaction inhibitors, dose response, miRNA deadenylation inhibitor project, biochemical, fluorescence polarization, Cy5-PAM2 peptide, secondary (AID 602260); type: functional; details: read-out: IC50_Mean
T5 sequence (P11940 whole entry): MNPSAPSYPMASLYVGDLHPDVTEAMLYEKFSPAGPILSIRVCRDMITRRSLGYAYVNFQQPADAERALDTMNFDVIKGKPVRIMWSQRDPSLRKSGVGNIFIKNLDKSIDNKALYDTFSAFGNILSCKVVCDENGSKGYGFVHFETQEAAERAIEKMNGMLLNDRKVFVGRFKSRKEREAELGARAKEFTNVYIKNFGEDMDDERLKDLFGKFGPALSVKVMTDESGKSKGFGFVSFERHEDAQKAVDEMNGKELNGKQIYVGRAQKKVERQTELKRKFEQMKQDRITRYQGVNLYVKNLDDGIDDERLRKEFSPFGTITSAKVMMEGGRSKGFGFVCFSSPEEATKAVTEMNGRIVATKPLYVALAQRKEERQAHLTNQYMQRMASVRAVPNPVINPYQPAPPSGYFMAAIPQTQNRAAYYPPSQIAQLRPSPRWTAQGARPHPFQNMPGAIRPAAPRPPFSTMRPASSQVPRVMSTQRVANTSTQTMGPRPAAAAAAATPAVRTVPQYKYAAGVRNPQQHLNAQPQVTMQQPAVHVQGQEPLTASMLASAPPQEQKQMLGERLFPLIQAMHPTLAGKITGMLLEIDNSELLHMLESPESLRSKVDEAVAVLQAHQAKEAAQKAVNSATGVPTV

[12] = target: T5, Polyadenylate-binding protein 1; assay: PABP1 MLLE–PAM2 binding inhibitor potency, dose response, biochemical, fluorescence polarization, FITC-PAM2 peptide (AID 602259); type: functional; details: read-out: IC50_Mean
[13] = Luminescence Cell-Based Dose Retest to Confirm Inhibitors of Cancer Stem Cells. [Related pubchem assays (depositor defined):AID2717, AID2721]; type: functional; details: Homo sapiens
[14] = system: INS1; assay: beta cell apoptosis inhibitors, cytokine rescue, dose response, luminescence, retest (AID 449756); type: functional, cell-based; details: Rattus norvegicus;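 also: cell death triggered by IL-1 beta plus TNF-alpha plus IFN-gamma mixture; protective hits raise ATP signal compared with cytokine alone wells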
[15] = inhibitors of clade B AD8 Env fusion, dose response, cell-based, cherry-pick (AID 652062); type: functional;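 also: luciferase signal from cell-cell fusion driven by HIV-1 clade B AD8 Env; potency is for inhibitors of fusion seen as a drop in luminescence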
[16] = ZM109 Env clade C HIV-1 fusion inhibitors, dose response, HeLa effector, CEM target cells, luciferase, cherry-pick (AID 652058); type: functional, cell-based
[17] = inhibitors of HIV Env-driven cell fusion, dose response, cherry-pick (AID 652057); type: functional, cell-based
[18] = target: T6, Streptokinase A (Streptococcus pyogenes serotype M1, UniProt P10520); assay: S. pyogenes streptokinase expression inhibitors, potency, dose response, plasminogen activation absorbance, OD405 (AID 1914); type: functional, Streptococcus pyogenes M1 GAS;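 also: secreted streptokinase activity via plasminogen activation per viability signal from cell pellet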
T6 sequence (P10520 whole entry): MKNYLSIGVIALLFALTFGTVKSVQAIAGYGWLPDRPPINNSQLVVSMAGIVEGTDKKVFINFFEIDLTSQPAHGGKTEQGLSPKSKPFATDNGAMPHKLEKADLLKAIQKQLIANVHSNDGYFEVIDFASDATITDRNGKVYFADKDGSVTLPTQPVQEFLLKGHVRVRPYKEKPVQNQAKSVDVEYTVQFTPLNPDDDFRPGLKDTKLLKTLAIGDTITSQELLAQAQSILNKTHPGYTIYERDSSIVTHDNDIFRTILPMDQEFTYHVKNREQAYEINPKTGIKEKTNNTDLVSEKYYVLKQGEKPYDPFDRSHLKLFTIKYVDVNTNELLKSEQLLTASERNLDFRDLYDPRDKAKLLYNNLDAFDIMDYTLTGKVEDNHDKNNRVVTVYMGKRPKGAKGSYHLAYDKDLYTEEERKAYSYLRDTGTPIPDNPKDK

[19] = system: HEK293; assay: inhibitors of LMP1-driven NF-kB reporter, dose response, cell-based, HEK293, luciferase, cherry-pick (AID 588343); type: functional; details: Homo sapiens
[20] = system: Streptococcus sp. 'group A'; assay: growth inhibition of control SK(-) GAS strain, dose response, counter-screen for streptokinase expression inhibitor project, luminescence, kanamycin, BacTiterGlo, confirmation (AID 1900); type: functional, organism-based
[21] = system: Streptococcus; assay: Group A Streptococcus viability loss, dose response, counter-screen for streptokinase expression inhibitor project, luminescence, BacTiterGlo (AID 1915); type: functional, organism-based;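 also: potency for reduction of bacterial viability or growth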
[22] = C. albicans growth with fluconazole, confirmation, fluorescence, retest (AID 2467); type: functional, cell-based
[23] = NIH-3T3 fibroblast cytotoxicity, dose response, cytotoxicity control, cell-based, fluorescence, Alamar Blue, secondary assay (AID 2327); type: functional;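 also: NIH-3T3 mouse fibroblasts cultured with fluconazole at 8 µg/mL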
[24] = target: Paired box protein Pax-8 (Homo sapiens, UniProt Q06710); assay: inhibitors of PAX8-driven TPO luciferase reporter, dose response, RMG-I cells, cherry-pick (AID 687027); type: functional, cell-based;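 also: luciferase reporter driven by Pax8 target thyroperoxidase promoter measured by SteadyGlo luminescence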
Paired box protein Pax-8, sequence (Q06710 whole entry): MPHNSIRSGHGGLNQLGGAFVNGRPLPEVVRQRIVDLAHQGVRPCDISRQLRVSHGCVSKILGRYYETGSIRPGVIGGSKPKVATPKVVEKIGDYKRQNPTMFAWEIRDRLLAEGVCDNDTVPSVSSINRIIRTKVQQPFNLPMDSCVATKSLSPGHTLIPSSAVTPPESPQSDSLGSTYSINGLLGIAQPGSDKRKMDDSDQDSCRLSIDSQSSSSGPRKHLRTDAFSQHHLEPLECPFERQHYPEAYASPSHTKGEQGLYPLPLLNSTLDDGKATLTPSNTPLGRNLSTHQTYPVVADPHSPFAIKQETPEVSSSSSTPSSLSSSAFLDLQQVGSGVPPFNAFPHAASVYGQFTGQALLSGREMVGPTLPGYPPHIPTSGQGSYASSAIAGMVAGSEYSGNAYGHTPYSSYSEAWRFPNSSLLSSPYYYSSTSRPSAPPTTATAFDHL

[25] = microbe, parasite or virus in culture; type: functional; details: Mycobacterium tuberculosis

Beta-galactosidase, sequence (Q8VNN2 whole entry): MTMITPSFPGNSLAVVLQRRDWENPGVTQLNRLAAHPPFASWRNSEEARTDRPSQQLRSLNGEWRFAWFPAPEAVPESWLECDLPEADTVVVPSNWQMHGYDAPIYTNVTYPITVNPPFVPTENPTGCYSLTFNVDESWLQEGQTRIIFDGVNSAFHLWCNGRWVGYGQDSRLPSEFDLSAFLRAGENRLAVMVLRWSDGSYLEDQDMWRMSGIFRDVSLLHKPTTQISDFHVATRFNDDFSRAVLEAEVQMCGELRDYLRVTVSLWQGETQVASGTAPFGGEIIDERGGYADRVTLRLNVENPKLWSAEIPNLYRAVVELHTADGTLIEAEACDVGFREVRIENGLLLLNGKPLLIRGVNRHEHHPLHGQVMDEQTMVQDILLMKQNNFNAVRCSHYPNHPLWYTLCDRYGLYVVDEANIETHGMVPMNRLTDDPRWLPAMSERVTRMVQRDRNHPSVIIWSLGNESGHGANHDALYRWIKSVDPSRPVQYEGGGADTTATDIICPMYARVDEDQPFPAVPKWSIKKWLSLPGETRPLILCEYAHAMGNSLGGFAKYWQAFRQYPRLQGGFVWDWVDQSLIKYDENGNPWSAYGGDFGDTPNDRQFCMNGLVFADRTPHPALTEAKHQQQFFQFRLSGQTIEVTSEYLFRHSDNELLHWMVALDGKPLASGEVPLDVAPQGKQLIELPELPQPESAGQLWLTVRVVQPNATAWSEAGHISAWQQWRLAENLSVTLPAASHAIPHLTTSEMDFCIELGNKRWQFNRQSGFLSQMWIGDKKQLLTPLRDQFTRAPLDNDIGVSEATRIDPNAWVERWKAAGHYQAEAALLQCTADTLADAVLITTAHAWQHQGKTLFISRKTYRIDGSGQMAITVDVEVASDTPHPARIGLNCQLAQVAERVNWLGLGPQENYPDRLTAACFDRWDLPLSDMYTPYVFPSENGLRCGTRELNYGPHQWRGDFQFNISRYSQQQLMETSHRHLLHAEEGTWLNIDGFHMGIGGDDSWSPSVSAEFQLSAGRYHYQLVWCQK

## N#C/C(=C\c1ccccc1)C(=O)Nc1cc(S(=O)(=O)N2CCOCC2)ccc1N1CCCC1
[1]
  IC50: > 80 µM (inactive)

## CCSc1nnc(NC(=O)C2CC=CCC2C(=O)O)s1 (centres undefined)
[2]
  IC50: 19.9 µM (active)

## Cc1ccc(NCCN(C)C)c2c(=O)c3cc(O)ccc3sc12
[3]
  CC50: 27.7 µM (active)
[4]
  IC50: 21.7 µM (active)
[5]
  IC50: 24 µM (active)
[6]
  AC50: 0.32 µM (active)

## NC(=O)CSc1nc2cc([N+](=O)[O-])ccc2[nH]1
[7]
  IC50: 9.62 µM (active)
[8]
  IC50: 12.4 µM (active)

## CCOc1cc(CNc2ccc(N3CCCCC3)cc2)cc(Br)c1OCC(=O)NC(C)(C)C
[3]
  CC50: 100 µM (active)
[5]
  IC50: 20.8 µM (active)
[9]
  EC50: > 60 µM (inconclusive)
[10]
  EC50: 1.46 µM (active)

## COc1ccc(NC(=O)CSc2nc(O)c(Cc3ccccc3)c(=O)[nH]2)cc1
[2]
  IC50: 10.2 µM (active)
[11]
  IC50: > 66 µM (inactive)
[12]
  IC50: > 66 µM (inactive)

## Cc1ccc(Oc2ncc(-c3ccc(Cl)cc3)cn2)cc1
[1]
  IC50: > 80 µM (inactive)

## CCC1=NN(C(=O)c2cccc(Br)c2)C(O)(c2ccc(Br)cc2)C1 (centres undefined)
[13]
  AC50: 0.634 µM (active)
[7]
  IC50: 8.71 µM (active)
[14]
  AC50: 4.84 µM (active)
[8]
  IC50: 12.1 µM (active)

## C[C@@H]1CN([C@@H](C)CO)S(=O)(=O)c2ccc(C3=CCCCC3)cc2O[C@@H]1CN(C)S(=O)(=O)c1ccc(F)cc1
[15]
  AC50: 3.53 µM (active)
[16]
  AC50: 1.35 µM (active)
[17]
  AC50: 3.34 µM (active)

## S=C(NCC1CCCCC1)Nc1ccc(Oc2ccccc2)cc1
[13]
  AC50: 4.58 µM (active)
[18]
  EC50: 4.05 µM (active)
[19]
  AC50: 170 µM (active)
[20]
  EC50: 10.9 µM (active)
[21]
  EC50: 24.3 µM (active)
[9]
  EC50: > 60 µM (not active)
[10]
  EC50: 2.05 µM (active)

## CC(=O)N1CCOc2ccc(S(=O)(=O)N3CCC(C(=O)NCc4ccc(Cl)cc4)CC3)cc21
[1]
  IC50: > 80 µM (inactive)

## C[C@H]1CN([C@@H](C)CO)S(=O)(=O)c2ccc(-c3cccc(C#N)c3)cc2O[C@H]1CN(C)Cc1cccc(F)c1
[16]
  AC50: 43.1 µM (active)
[17]
  AC50: 45.7 µM (active)

## Cc1cc(C)c(S(=O)(=O)N2CCN(C(=O)c3ccc(-n4nc(C)c(Cl)c4C)cc3)CC2)c(C)c1
[1]
  IC50: > 80 µM (inactive)

## C=CCn1c(O)c(N=NC(S)=Nc2ccccc2C)c2cc(S(=O)(=O)N3CCOCC3)ccc21
[19]
  AC50: 2.93 µM (active)
[22]
  EC50: 2.06 µM (active)
[23]
  EC50: 20.4 µM (inconclusive)

## CCOC(=O)/C=C/C(=O)Nc1cc(S(=O)(=O)Nc2ccc(OC)cc2)ccc1N1CCOCC1
[24]
  AC50: 5.42 µM (active)
[1]
  IC50: > 80 µM (inactive)

## O=c1[nH][nH]c(=O)c2cc(N3CCCC3)ccc12
[2]
  IC50: 70.7 µM (active)

## Cc1ccc(C(=O)O)cc1/N=C/c1cc(Br)cc(Br)c1O
[7]
  IC50: 18 µM (active)
[8]
  IC50: 9.89 µM (active)

## COc1ccccc1CNC(=O)C[C@H]1C[C@@H]2c3cc(NS(=O)(=O)c4ccc(F)cc4)ccc3O[C@@H]2[C@H](CO)O1
[15]
  AC50: < 0.26 µM (active)
[16]
  AC50: < 0.26 µM (active)
[17]
  AC50: < 0.26 µM (active)

## CN(C)Cc1ccc(F)cc1Sc1cc(Cl)ccc1Cl
[7]
  IC50: 16.4 µM (active)
[8]
  IC50: 16.9 µM (active)

## O=C(/C=C/c1ccc(Cl)cc1)N1CCN(c2ccc(Cl)cc2[N+](=O)[O-])CC1
[25]
  CC50: > 40 µM (active)
[1]
  IC50: > 80 µM (inactive)
